According to PubChem BioAssay AID1963963 (Molecular Pharmacology Branch, DTP, NCI, 2024):

Test system: 958667-338-R-J2-PDC tumor spheroids viability
Assay: Anticancer human tumor 958667-338-R-J2-PDC patient-derived colon adenocarcinoma cell line growth inhibition [PI3K]
Settings: spheroids with HUVEC and MSC; for IC50: curve of first compound; for viability, T/C: stronger effect = lower value
Method in brief: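 Complex 3D spheroids (cancer cells + endothelial HUVEC + mesenchymal stem cells); drug pairs of targeted agent x inavolisib/alpelisib/duvelisib/copanlisib; half-log series from ~Cmax, max 10 microM if Cmax unknown; endpoint viability.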

[1] = second compound 0.0316 µM, first compound 0.0316 µM
[2] = second compound 0.0316 µM, first compound 0.1 µM
[3] = second compound 0.0316 µM, first compound 0.316 µM
[4] = second compound 0.0316 µM, first compound 1 µM
[5] = second compound 0.0316 µM, first compound 3.16 µM
[6] = second compound 0.0316 µM, first compound 10 µM
[7] = second compound 0.1 µM, first compound 0.0316 µM
[8] = second compound 0.1 µM, first compound 0.1 µM
[9] = second compound 0.1 µM, first compound 0.316 µM
[10] = second compound 0.1 µM, first compound 1 µM
[11] = second compound 0.1 µM, first compound 3.16 µM
[12] = second compound 0.1 µM, first compound 10 µM
[13] = second compound 0.316 µM, first compound 0.0316 µM
[14] = second compound 0.316 µM, first compound 0.1 µM
[15] = second compound 0.316 µM, first compound 0.316 µM
[16] = second compound 0.316 µM, first compound 1 µM
[17] = second compound 0.316 µM, first compound 3.16 µM
[18] = second compound 0.316 µM, first compound 10 µM
[19] = second compound 1 µM, first compound 0.0316 µM
[20] = second compound 1 µM, first compound 0.1 µM
[21] = second compound 1 µM, first compound 0.316 µM
[22] = second compound 1 µM, first compound 1 µM
[23] = second compound 1 µM, first compound 3.16 µM
[24] = second compound 1 µM, first compound 10 µM
[25] = second compound 3.16 µM, first compound 0.0316 µM
[26] = second compound 3.16 µM, first compound 0.1 µM
[27] = second compound 3.16 µM, first compound 0.316 µM
[28] = second compound 3.16 µM, first compound 1 µM
[29] = second compound 3.16 µM, first compound 3.16 µM
[30] = second compound 3.16 µM, first compound 10 µM
[31] = second compound 10 µM, first compound 0.0316 µM
[32] = second compound 10 µM, first compound 0.1 µM
[33] = second compound 10 µM, first compound 0.316 µM
[34] = second compound 10 µM, first compound 1 µM
[35] = second compound 10 µM, first compound 3.16 µM
[36] = second compound 10 µM, first compound 10 µM
[37] = second compound 0.00316 µM, first compound 0.0316 µM
[38] = second compound 0.00316 µM, first compound 0.1 µM
[39] = second compound 0.00316 µM, first compound 0.316 µM
[40] = second compound 0.00316 µM, first compound 1 µM
[41] = second compound 0.00316 µM, first compound 3.16 µM
[42] = second compound 0.00316 µM, first compound 10 µM
[43] = second compound 0.01 µM, first compound 0.0316 µM
[44] = second compound 0.01 µM, first compound 0.1 µM
[45] = second compound 0.01 µM, first compound 0.316 µM
[46] = second compound 0.01 µM, first compound 1 µM
[47] = second compound 0.01 µM, first compound 3.16 µM
[48] = second compound 0.01 µM, first compound 10 µM
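Note: spheroids exposed to compounds for seven days before readout.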

C[C@@H](NC(=O)c1ncnc(N)c1Cl)c1ncc(C(=O)Nc2cc(C(F)(F)F)c(Cl)cn2)s1 + Cc1nc(NC(=O)N2CCCC2C(N)=O)sc1-c1ccnc(C(C)(C)C(F)(F)F)c1
IC50 (second compound 0.0316 µM): > 10 µM
IC50 (second compound 0.1 µM): > 10 µM
IC50 (second compound 0.316 µM): > 10 µM
IC50 (second compound 1 µM): > 10 µM
IC50 (second compound 3.16 µM): > 10 µM
IC50 (second compound 10 µM): 3.29 µM
viability, T/C [1]: 97.2%
viability, T/C [2]: 121%
viability, T/C [3]: 115%
viability, T/C [4]: 88.6%
viability, T/C [5]: 87.8%
viability, T/C [6]: 89.2%
viability, T/C [7]: 119%
viability, T/C [8]: 126%
viability, T/C [9]: 113%
viability, T/C [10]: 108%
viability, T/C [11]: 107%
viability, T/C [12]: 94.9%
viability, T/C [13]: 101%
viability, T/C [14]: 85%
viability, T/C [15]: 106%
viability, T/C [16]: 111%
viability, T/C [17]: 94.7%
viability, T/C [18]: 90.2%
viability, T/C [19]: 87%
viability, T/C [20]: 95.8%
viability, T/C [21]: 116%
viability, T/C [22]: 94.9%
viability, T/C [23]: 81.6%
viability, T/C [24]: 75.7%
viability, T/C [25]: 77.9%
viability, T/C [26]: 86.9%
viability, T/C [27]: 82.8%
viability, T/C [28]: 90.4%
viability, T/C [29]: 89.8%
viability, T/C [30]: 57.9%
viability, T/C [31]: 79.4%
viability, T/C [32]: 82.5%
viability, T/C [33]: 76.6%
viability, T/C [34]: 71.3%
viability, T/C [35]: 50.7%
viability, T/C [36]: 28.2%

C[C@@H](NC(=O)c1ncnc(N)c1Cl)c1ncc(C(=O)Nc2cc(C(F)(F)F)c(Cl)cn2)s1 + CC(Nc1ccc2c(c1)OCCn1cc(N3C(=O)OCC3C(F)F)nc1-2)C(N)=O
IC50 (second compound 0.00316 µM): > 10 µM
IC50 (second compound 0.01 µM): > 10 µM
IC50 (second compound 0.0316 µM): > 10 µM
IC50 (second compound 0.1 µM): > 10 µM
IC50 (second compound 0.316 µM): > 10 µM
IC50 (second compound 1 µM): > 10 µM
viability, T/C [37]: 112%
viability, T/C [38]: 116%
viability, T/C [39]: 87.5%
viability, T/C [40]: 120%
viability, T/C [41]: 115%
viability, T/C [42]: 103%
viability, T/C [43]: 118%
viability, T/C [44]: 131%
viability, T/C [45]: 113%
viability, T/C [46]: 111%
viability, T/C [47]: 101%
viability, T/C [48]: 102%
viability, T/C [1]: 90.4%
viability, T/C [2]: 97%
viability, T/C [3]: 92%
viability, T/C [4]: 96.1%
viability, T/C [5]: 101%
viability, T/C [6]: 108%
viability, T/C [7]: 88.5%
viability, T/C [8]: 97.4%
viability, T/C [9]: 93.9%
viability, T/C [10]: 94.2%
viability, T/C [11]: 90.1%
viability, T/C [12]: 76.2%
viability, T/C [13]: 67.7%
viability, T/C [14]: 72.4%
viability, T/C [15]: 95.1%
viability, T/C [16]: 80.8%
viability, T/C [17]: 77.8%
viability, T/C [18]: 80%
viability, T/C [19]: 61.2%
viability, T/C [20]: 59.8%
viability, T/C [21]: 59.3%
viability, T/C [22]: 64.3%
viability, T/C [23]: 75.5%
viability, T/C [24]: 58.9%

C#Cc1c(F)ccc2cc(O)cc(-c3ncc4c(N5CC6CCC(C5)N6)nc(OCC56CCCN5CC(F)C6)nc4c3F)c12 (stereo not drawn) + COc1c(OCCCN2CCOCC2)ccc2c3n(c(=NC(=O)c4cnc(N)nc4)nc12)CCN3
IC50 (second compound 0.00316 µM): > 10 µM
IC50 (second compound 0.01 µM): > 10 µM
IC50 (second compound 0.0316 µM): 6.5 µM
IC50 (second compound 0.1 µM): 1.09 µM
IC50 (second compound 0.316 µM): < 0.0316 µM
IC50 (second compound 1 µM): < 0.0316 µM
viability, T/C [37]: 112%
viability, T/C [38]: 107%
viability, T/C [39]: 83.9%
viability, T/C [40]: 108%
viability, T/C [41]: 86.9%
viability, T/C [42]: 74%
viability, T/C [43]: 93.4%
viability, T/C [44]: 86.9%
viability, T/C [45]: 109%
viability, T/C [46]: 73.3%
viability, T/C [47]: 68.7%
viability, T/C [48]: 56.7%
viability, T/C [1]: 70.8%
viability, T/C [2]: 86.9%
viability, T/C [3]: 73.2%
viability, T/C [4]: 70.4%
viability, T/C [5]: 62.1%
viability, T/C [6]: 42.9%
viability, T/C [7]: 71.7%
viability, T/C [8]: 63.4%
viability, T/C [9]: 54.6%
viability, T/C [10]: 51.6%
viability, T/C [11]: 46.7%
viability, T/C [12]: 28%
viability, T/C [13]: 35.1%
viability, T/C [14]: 41.2%
viability, T/C [15]: 35.8%
viability, T/C [16]: 32.7%
viability, T/C [17]: 20.4%
viability, T/C [18]: 10%
viability, T/C [19]: 14.1%
viability, T/C [20]: 18.1%
viability, T/C [21]: 24.2%
viability, T/C [22]: 15.9%
viability, T/C [23]: 8.98%
viability, T/C [24]: 1.67%

CC(Cn1ccc(-c2ccc(C#N)c(Cl)c2)n1)NC(=O)c1cc(C(C)O)[nH]n1 (stereo not drawn) + Cc1nc(NC(=O)N2CCCC2C(N)=O)sc1-c1ccnc(C(C)(C)C(F)(F)F)c1
IC50 (second compound 0.0316 µM): > 10 µM
IC50 (second compound 0.1 µM): > 10 µM
IC50 (second compound 0.316 µM): > 10 µM
IC50 (second compound 1 µM): > 10 µM
IC50 (second compound 3.16 µM): > 10 µM
IC50 (second compound 10 µM): > 10 µM
viability, T/C [1]: 78.8%
viability, T/C [2]: 98.7%
viability, T/C [3]: 84.2%
viability, T/C [4]: 114%
viability, T/C [5]: 102%
viability, T/C [6]: 107%
viability, T/C [7]: 86.8%
viability, T/C [8]: 92.8%
viability, T/C [9]: 97.9%
viability, T/C [10]: 81.9%
viability, T/C [11]: 91.9%
viability, T/C [12]: 74.8%
viability, T/C [13]: 106%
viability, T/C [14]: 87.8%
viability, T/C [15]: 90.8%
viability, T/C [16]: 94.5%
viability, T/C [17]: 86.3%
viability, T/C [18]: 92.3%
viability, T/C [19]: 62.9%
viability, T/C [20]: 65.9%
viability, T/C [21]: 95.9%
viability, T/C [22]: 72.8%
viability, T/C [23]: 92.7%
viability, T/C [24]: 80%
viability, T/C [25]: 76.3%
viability, T/C [26]: 55%
viability, T/C [27]: 62.8%
viability, T/C [28]: 68.4%
viability, T/C [29]: 85.4%
viability, T/C [30]: 72.6%
viability, T/C [31]: 52.5%
viability, T/C [32]: 59.7%
viability, T/C [33]: 47.7%
viability, T/C [34]: 59.7%
viability, T/C [35]: 72%
viability, T/C [36]: 50.5%
